Measured values: US20110039762A1, “TARGETED ANTIMICROBIAL MOIETIES” (C3 JIAN, INC., priority 2009, published 2011)
“Also recorded” adds a separate entry of the source.

What was measured:
[1] = test system: MRSA; experiment: Kill or inhibit growth/proliferation; morphology, biofilm and growth disruption (Tables 5, 6); format: cell-based, Methicillin-resistant Staphylococcus aureus; parameters: key: A: Peptide aggregates; B: Less hyphal formation; Clumps; Diffuse clumps and small polyps; F: Diffuse growth; H: Thin; I: Growth inhibition; Microcolony formation; Rippled; Small polyps; Thick; W: Halo formation on top, microlonies on bottom; also: test concentration or dose not given here
[2] = test system: S. epidermidis; experiment: as above; format: cell-based, Staphylococcus epidermidis; parameters: key: A: Peptide aggregates; B: Less hyphal formation; Clumps; Diffuse clumps and small polyps; F: Diffuse growth; H: Thin; I: Growth inhibition; Microcolony formation; Rippled; Small polyps; Thick; W: Halo formation on top, microlonies on bottom; also: test concentration or dose not given here
[3] = test system: E. coli; experiment: as above; format: cell-based, Escherichia coli; parameters: key: A: Peptide aggregates; B: Less hyphal formation; Clumps; Diffuse clumps and small polyps; F: Diffuse growth; H: Thin; I: Growth inhibition; Microcolony formation; Rippled; Small polyps; Thick; W: Halo formation on top, microlonies on bottom; also: test concentration or dose not given here
[4] = test system: microorganisms (e.g., bacteria, yeasts, fungi); experiment: Targeting peptide binding to target microorganisms (Table 3); details: microorganism(s) the targeting peptide binds, preferably 1x PBS
[5] = test system: microorganisms; experiment: Peptides having multiple activities (targeting/binding, antimicrobial, growth or phenotype altering)
Text: In certain embodiments, peptides described herein can have multiple activities. Thus for example, a peptide can have both binding/targeting activity and antimicrobial activity. Such peptides can be used, e.g., in a chimeric construct, for any or all of these properties. Thus, for example, a peptide designated “B” in Table 8 can be used as a targeting peptide. If it is also designated G or M it can also be used for antimicrobial activity.

[6] = test system: S. pneumoniae; experiment: Kill or inhibit growth/proliferation; morphology, biofilm and growth disruption (Tables 5, 6); format: cell-based, Streptococcus pneumoniae; parameters: key: A: Peptide aggregates; B: Less hyphal formation; Clumps; Diffuse clumps and small polyps; F: Diffuse growth; H: Thin; I: Growth inhibition; Microcolony formation; Rippled; Small polyps; Thick; W: Halo formation on top, microlonies on bottom; also: test concentration or dose not given here
[7] = binding in aqueous buffers depending on peptide solubility
[8] = peptide binding conducted in aqueous buffers varied by peptide solubility

Substance	Organism, effect [1]	Organism, effect [2]	Organism, effect [3]	Target(s) [4, 7]	Activities [5]	Target(s) [4, 8]	Organism, effect [6]
PF-350: peptide having multiple activities (LAVILRAIVY; Peptide with targeting and/or antimicrobial activity)	MRSA (C)	S. epidermidis (C)	E. coli (C)	S. epidermidis; also recorded: E. coli; also recorded: E. faecalis; also recorded: C. jeikeium; also recorded: C. jejuni	G B		
PF-360: peptide having multiple activities (chain 1 MEQKVKVIFVPRSKPDNQLKTFVSAVLFKA; chain 2 MEQKVKVIFVPRSKPDNQLKTFVSAVLFKA; Peptide with targeting and/or antimicrobial activity)	MRSA (H)	S. epidermidis (S)	E. coli (C)	S. epidermidis; also recorded: B. subtilis; also recorded: E. coli; also recorded: P. aeruginosa; also recorded: C. albicans; also recorded: E. faecalis; also recorded: C. jeikeium; also recorded: C. jejuni	G B		
PF-370: peptide having multiple activities (chain 1 VIFLHKESGNLKEIFY; chain 2 VIFLHKESGNLKEIFY; Peptide with targeting and/or antimicrobial activity)	MRSA (C)	S. epidermidis (C)	E. coli (R)	S. epidermidis; also recorded: E. coli; also recorded: P. aeruginosa; also recorded: E. faecalis; also recorded: C. jejuni	G B		
PF-383: peptide having multiple activities (chain 1 WSEIEINTKQSN; chain 2 WSEIEINTKQSN; Peptide with targeting and/or antimicrobial activity)		S. epidermidis (C)	E. coli (R)	S. epidermidis; also recorded: B. subtilis; also recorded: B. fragilis; also recorded: E. coli; also recorded: C. jejuni	G B		
PF-395: peptide having multiple activities (YCVPLGNMGNMNNKIW; Peptide with targeting and/or antimicrobial activity)	MRSA (C)	S. epidermidis (C)	E. coli (R)		G B	S. epidermidis; also recorded: E. coli; also recorded: P. aeruginosa; also recorded: S. pneumoniae; also recorded: E. faecalis; also recorded: C. jeikeium; also recorded: C. jejuni	
PF-403: peptide having multiple activities (LLSTEQLLKYYDGETFDGFQLPSNE; Peptide with targeting and/or antimicrobial activity)	MRSA (M)	S. epidermidis (M)	E. coli (R)		G B	E. coli; also recorded: P. aeruginosa; also recorded: S. pneumoniae; also recorded: E. faecalis; also recorded: C. jeikeium; also recorded: C. jejuni	
PF-413: peptide having multiple activities (TFAGSIKIGVPDLVHVTFNCKR; Peptide with targeting and/or antimicrobial activity)	MRSA (C)	S. epidermidis (C)	E. coli (S)		G B	P. aeruginosa; also recorded: C. albicans; also recorded: C. jejuni	
PF-443: peptide having multiple activities (chain 1 KLLYFFNYFENLQQVHLLVQL; chain 2 KLLYFFNYFENLQQVHLLVQL; Peptide with targeting and/or antimicrobial activity)	MRSA (C)		E. coli (R)		G B		S. pneumoniae (C)
